Data as given in publication PMC7450057, “Enhancing intracellular accumulation and target engagement of PROTACs with reversible covalent chemistry” (Nature Communications, 2020).
“And” between values parts separate entries of the source, which are not always exact repeats. Equal values may be shown once. “Also recorded” adds a separate entry of the source.

Assays:
wild-type BTK = target: T1, wild-type BTK (Homo sapiens, UniProt Q06187); assay: BTK degradation in XLA cells overexpressing wild-type BTK (western blot); format: cell-based; settings: 24 h
T1 construct: expressed in transfected cells; host or cells: XLA cells (gift from Dr. Woyach)
Experimental: XLA cells overexpressing wild-type BTK or mutant C481S BTK were plated at the same cell number and density as the above experiments and were treated with RC-1, IRC-1, or RNC-1 at the dose of 1.6, 8.0, 40, 200, and 1000 nM for 24 h. After completion of treatment, all the cells were collected and processed for western blot analysis.
The collected cells and spleen tissues were lysed in RIPA lysis buffer (50 mM Tris-HCl, pH 7.4, 150 mM NaCl, 1% NP-40, 0.5% sodium deoxycholate, 0.1% SDS) supplemented with Halt™ Protease and Phosphatase Inhibitor Cocktail (Thermo Fisher Scientific, Cat. No. PI78440) immediately before use. Lysates were centrifuged at 15,000 × g for 10 min at 4 °C and the supernatant was quantified for total protein concentration using the Pierce BCA Protein Assay (Thermo Fisher Scientific, Cat. No. 23225). Thirty micrograms of protein were loaded onto sodium dodecyl sulfate−polyacrylamide gel for electrophoresis (Bio-Rad) and transferred onto PVDF membranes (Millipore, Cat. No. IPVH00010). […] Imaging was performed using the ECL Prime chemiluminescent western blot detection reagents (GE Healthcare, Cat. No. RPN2232) by visualization of the blots to X-Ray film or with an Imager (Kindle Biosciences, Cat. No. D1001). All western blots were subsequently processed and quantified with Imager software. Protein level was normalized to β-actin or GAPDH loading controls.

IKZF1 = assay: Splenic IKZF1 level in mice after single RC-1 injection (western blot); format: in vivo, ICR mice; settings: for IKZF1 level, mean: Figure 5d, DMSO = 100; for IKZF1 quantification: Supplementary Figure 8, individual animals
Experimental: To investigate the protein degradation effect of RC-1 in vivo, mice were subjected to single RC-1 administration at the dose of 50 or 100 mg kg^−1 (i.p.) or seven once-daily RC-1 administration at the dose of 20 mg kg^−1 (i.p.) (n = 2–3). Twenty-four hours after the one-time RC-1 injection or 24 h after the 7th injection, mice were anesthetized with isoflurane and the whole spleen was dissected and stored at −80 °C for western blot analysis of protein level.
Supplementary Figure 8. Protein degradation by BTK PROTAC RC-1 in mouse spleen. ICR mice were subjected to single IP injection of RC-1 at the dose of 50 mg/kg (n = 4) or 100 mg/kg (n = 3) and spleens were harvested 24 h after injection. (a) The splenic p-BTK(Y233), BTK, IKZF1 and IKZF3 levels were measured with Western blot. (b). Quantification of protein levels shown in (a). Data are presented as mean values ± SEM.
Asterisks indicate that the differences between samples are statistically significant, using two-tailed, unpaired t- […]
test (* p < 0.05; significant).
(1 picture or pasted object on this page, not shown here)

[1] = target: T2, {BTK-PROTAC-CRBN} ternary complex (Homo sapiens, UniProt Q06187+Q96SW2); assay: BTK-SPPIER imaging of ternary complex formation in live cells; format: cell-based; settings: HEK293T/17 cells, 10 µM
T2 construct: full-length CRBN was first cloned into pcDNA3 containing EGFP; expressed in transfected cells; host or cells: HEK293T/17
Text: To visualize small molecule-induced protein–protein interactions (PPIs), we recently applied fluorophore phase transition-based principle and designed a PPI assay named separation of phases-based protein interaction reporter (SPPIER)[36]. A SPPIER protein design includes three domains, a protein-of-interest, an enhanced GFP (EGFP), and a homo-oligomeric tag (HOTag). Upon small molecule-induced PPI between two proteins-of-interest, multivalent PPIs from HOTags drive EGFP phase separation, forming brightly fluorescent droplets. […] If PROTACs can induce {BTK-PROTAC-CRBN} ternary complex formation in cells, they will crosslink the BTK^KD-EGFP-HOTag6 tetramers and the CRBN-EGFP-HOTag3 hexamers to produce EGFP phase separation, which can be conveniently visualized with a fluorescence microscope. […]
HEK293T/17 cells were transiently transfected with the plasmid using calcium phosphate transfection reagent or lipofectamine. […] Fluorescence images were acquired with an exposure time of 50 ms for EGFP. […]
For analysis of the SPPIER signal, images were processed in imageJ. The sum of droplet pixel fluorescence intensity and cell pixel intensity was scored using the Analyze Particle function in imageJ.

T1 sequence (Q06187 whole entry): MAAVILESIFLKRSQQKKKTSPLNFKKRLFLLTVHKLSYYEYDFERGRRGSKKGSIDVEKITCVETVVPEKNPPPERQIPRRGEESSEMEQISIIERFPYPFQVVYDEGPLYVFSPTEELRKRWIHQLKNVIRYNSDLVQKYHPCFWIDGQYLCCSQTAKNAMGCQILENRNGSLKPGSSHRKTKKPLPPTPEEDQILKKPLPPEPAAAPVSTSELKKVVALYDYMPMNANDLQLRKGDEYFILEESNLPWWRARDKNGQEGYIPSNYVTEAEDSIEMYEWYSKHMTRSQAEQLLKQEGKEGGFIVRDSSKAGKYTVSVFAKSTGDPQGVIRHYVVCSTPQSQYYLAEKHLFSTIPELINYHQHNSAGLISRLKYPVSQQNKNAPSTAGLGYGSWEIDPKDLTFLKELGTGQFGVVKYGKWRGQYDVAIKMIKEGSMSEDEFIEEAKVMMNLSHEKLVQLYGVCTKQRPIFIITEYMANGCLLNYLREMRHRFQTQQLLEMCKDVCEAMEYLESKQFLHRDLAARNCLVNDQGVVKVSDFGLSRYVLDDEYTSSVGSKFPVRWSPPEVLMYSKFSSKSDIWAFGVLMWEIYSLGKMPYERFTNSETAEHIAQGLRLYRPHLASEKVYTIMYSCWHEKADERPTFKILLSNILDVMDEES
T2 sequence (Q06187 382-659 limits assumed): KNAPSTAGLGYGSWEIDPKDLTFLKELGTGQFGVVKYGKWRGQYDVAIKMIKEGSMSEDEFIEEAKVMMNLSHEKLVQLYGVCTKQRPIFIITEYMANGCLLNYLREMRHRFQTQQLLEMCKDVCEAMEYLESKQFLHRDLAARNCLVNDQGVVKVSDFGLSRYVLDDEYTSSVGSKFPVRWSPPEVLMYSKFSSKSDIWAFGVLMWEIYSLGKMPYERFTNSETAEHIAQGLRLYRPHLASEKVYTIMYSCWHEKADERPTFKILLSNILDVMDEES
T2 sequence (Q96SW2 whole entry): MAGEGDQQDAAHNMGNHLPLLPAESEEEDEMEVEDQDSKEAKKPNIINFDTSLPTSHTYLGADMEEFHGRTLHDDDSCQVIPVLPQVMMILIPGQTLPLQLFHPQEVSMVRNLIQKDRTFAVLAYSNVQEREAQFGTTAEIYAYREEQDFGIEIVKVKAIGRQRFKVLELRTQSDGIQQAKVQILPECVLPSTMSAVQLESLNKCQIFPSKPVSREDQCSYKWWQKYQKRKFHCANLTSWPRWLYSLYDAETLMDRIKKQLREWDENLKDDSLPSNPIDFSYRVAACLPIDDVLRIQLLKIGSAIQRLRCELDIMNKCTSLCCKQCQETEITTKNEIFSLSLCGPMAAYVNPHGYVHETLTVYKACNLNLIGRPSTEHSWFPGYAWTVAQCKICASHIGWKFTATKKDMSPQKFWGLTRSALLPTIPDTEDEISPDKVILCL

SMILES: CN(CCCNC(=O)CNc1cccc2c1C(=O)N(C1CCC(=O)NC1=O)C2=O)C(C)(C)C=C(C#N)C(=O)N1CCC[C@@H](n2nc(-c3ccc(Oc4ccccc4)cc3)c3c(N)ncnc32)C1 (stereo partly drawn) [RC-1]
- BTK degradation (in words) (wild-type BTK): dose-dependent BTK degradation; also recorded: degrades both wild-type BTK and the C481S mutant with similar potency
- IKZF1 level, mean (IKZF1; 1 injection): 82.288
- IKZF1 level, mean (IKZF1; 7 injections): 77.6802
- IKZF1 quantification (IKZF1; RC-1 50 mg/kg, 50 mg/kg): 32.4273 and 61.2234 and 87.896 and 43.9089
- IKZF1 quantification (IKZF1; RC-1 100 mg/kg, 100 mg/kg): 24.57 and 78.1459 and 58.0151
- green fluorescent droplets (ternary complex formation) [1]: induced appreciable green fluorescent droplets
